Assays:
468 human kinases = assay: human kinase profiling (Kinome scan, DiscoverX), whole panel; format: binding
[1] = test system: P. falciparum NF54 gametocytes; assay: gametocyte viability assay (AlamarBlue); format: cell-based, Plasmodium falciparum; settings: for IC50: P. falciparum NF54 stage III-V gametocytes, 72 h, AlamarBlue, mean ± SD, n = 3; for Asexual/Gametocyte: ratio of asexual IC50 to gametocyte IC50
Experimental: (§1) Asexual parasites of P. falciparum strain NF54 were cultured as described previously. Briefly, parasites were maintained in RPMI 1640 medium containing 10% positive human serum + erythrocytes (5% haematocrit), 2.5% sodium bicarbonate and 11 µg/mL gentamicin at 37 °C with 5% CO2, 5% O2 and 90% N2. Gametocyte cultures were set up at 0.1% parasitaemia and on days 9–10 treated with 50 mM N-acetylglucosamine (NAG) to block further asexual growth. Stage III–V gametocytes were isolated by Percoll density gradient centrifugation on day 12 and returned to culture for 24 h before being used in the assay. At the time of the assay over 73% of the gametocytes were stage IV or V (Additional file 1). HepG2 cells (ATCC, cat. no. 77400) were cultured in 175-cm^2 tissue culture flasks with 30 ml growth medium at 37 °C in a 5% CO2 and 5% O2 humidified atmosphere. Growth medium was made with Dulbecco’s Modified Eagle Medium with 10% fetal bovine serum (FBS). Growth medium was replaced every other day and cells were passaged at 75% confluence.
Compounds from the Sytravon library (a retired Pharma screening collection that contains a diversity of novel small molecules, with an emphasis on medicinal chemistry-tractable scaffolds) were obtained as powder samples and dissolved in DMSO as […] stock solutions. Compound screening experiments were performed as previously described. In the primary screen, two concentrations for each compound were tested. No technical and biological replicates were involved. In the follow-up confirmation studies, three biological replicates were tested for each compound in both parasite assays. The positive control was 46 µM of Torin 2 and negative control was DMSO. Briefly, 2.5 μL/well incomplete medium was dispensed into each well of 1536-well plates using the Multidrop Combi followed by 23 nL compound transferring using the NX-TR Pintool (WAKO Scientific Solutions, San Diego, CA). Then, 2.5 μL/well of gametocytes was dispensed with a seeding density of 20,000 cells/well using the Multidrop Combi. The assay plates were incubated for 72 h at 37 °C with 5% CO2. After addition of 5 μL/well of 2X AlamarBlue dye (Life Technologies, cat. no. DAL1100), the plates were incubated for 24 h at 37 °C with 5% CO2 and then were read in a fluorescence detection mode (Ex = 525 nm, Em = 598 nm) on a ViewLux plate reader (PerkinElmer).

HepG2 cells = assay: HepG2 cytotoxicity assay (AlamarBlue); format: cell-based, human; settings: HepG2 cells, 72 h, AlamarBlue, up to 46 µM
Experimental: as §1
Drug activity on HepG2 was tested using an AlamarBlue assay as previously described. Briefly, 5 μL/well of HepG2 cells were dispensed with a seeding density of 1000 cells/well using the Multidrop Combi. 23 nL compound was transferred using the NX-TR Pintool. After 72 h incubation under the standard culture condition, 5 μL/well of 2X AlamarBlue dye was added to the cells, the plates were incubated for 2 h at 37 °C with 5% CO2 and then were read in a fluorescence detection mode (Ex = 525 nm, Em = 598 nm) on a ViewLux plate reader.

[2] = test system: P. falciparum NF54 asexual parasites; assay: asexual parasite growth inhibition assay (SYBR Green); format: cell-based, Plasmodium falciparum; settings: 72 h, mean ± SD, n = 3
Experimental: as §1
Drug activity on asexual stage parasites was tested using a SYBR Green assay as described previously. Briefly, 2.5 μL/well complete culture medium was dispensed into each well of 1536-well plates using the Multidrop Combi followed by 23 nL compound transferring using the NX-TR Pintool. Parasites were diluted to 0.5% parasitaemia in complete culture medium with 2% haematocrit and drugs diluted in DMSO (≤0.5%). The pre-diluted parasites were dispensed into a 1536-well plate (2.5 μL/well). After 72 h incubation under the standard culture conditions, 5 μL/well of lysis buffer containing SYBR Green I was added to the parasite culture and incubated for 30 min at room temperature. The fluorescence of each well was measured in a fluorescence detection mode (Ex = 490 nm, Em = 520 nm) using a ViewLux plate reader (PerkinElmer).

| number of human kinases interacting (Interactions Mapped, 468 Assays Tested) (468 human kinases; 10 μM) | S-Score(35) (468 human kinases; 10 µM, 468 assays) | binding to human kinases, in words (468 human kinases; 10 µM, 468 human kinases) | IC50 ([1]; Plasmodium falciparum) | IC50 ([2]; Plasmodium falciparum) | IC50 [1] | IC50 [2] | Structure (SMILES) | Asexual/Gametocyte [1] | cytotoxicity at 46 µM (HepG2 cells; Homo sapiens, read-out: HepG2, IC50 (dash = less than 25% cytotoxicity)) | HepG2, IC50 (dash = less than 25% cytotoxicity) (HepG2 cells) |
| --- | --- | --- | --- | --- | --- | --- | --- | --- | --- | --- |
| 0 | 0 | did not affect the activity of any | 0.62 ± 0.04 µM | 1.16 ± 0.57 µM |  |  | CCOCc1cc(CN2CCN(c3ccccc3OC)CC2)c(O)c2ncccc12 [NCGC00114940] | 1.87 | < 25% |  |
|  |  |  |  |  | ~60 µM | 13.8 ± 0.82 µM | COc1ccc(NC(=O)c2ccc3c(c2)N(Cc2cccc(Cl)c2)C(=O)c2ccccc2[S+]3[O-])cc1Cl (stereo not drawn) [NCGC00140326] | 0.23 |  | – (Indicates compounds with less than 25% cytotoxicity at up to 46 µM) |
|  |  |  |  |  | 4.86 ± 0.03 µM | 1.07 ± 0.37 µM | Cc1ccc(C)c(Oc2c(C(F)(F)F)oc3c(CN4CCN(C)CC4)c(O)ccc3c2=O)c1 [NCGC00141020] | 0.22 |  | – (Indicates compounds with less than 25% cytotoxicity at up to 46 µM) |
